According to patent publication US20240041878A1, “APELIN RECEPTOR MODULATORS FOR TREATMENT OF A DISORDER OR DISEASE ASSOCIATED WITH BBB PERMEABILITY” (BioAge Labs, Inc., priority 2022, published 2024):

Legend:
Mouse primary astrocytes = assay: Astrocyte glutamate uptake; assay type: cell-based; conditions: RAC+APL [50 nM] versus RAC
Description: To stimulate astrocytes into a reactive state found in aging and neurodegenerative diseases per previous publications (Liddelow et al., 2017; Barbar et al., 2020), a combination of the cytokines TNF-α and IL-1α, and complement factor C1q, were added at 30 ng/mL, 3 ng/mL, and 400 ng/mL, respectively, into astrocyte culture media to make 'reactive astrocyte cocktail' (RAC) media. […] Bachem, Cat. #4029110), BAY-11-7082 (50 μM; Abcam, Cat. #ab141228) or equal volume of vehicle (0.01% DMSO in PBS) (hereafter referred to as 'RAC treatment'). […] Fresh HBSS was added to each well and 100 μM glutamate (Sigma, Cat. #G1251) was added to each well. Empty wells not containing cells were filled with HBSS and 100 μM [NT] negative control. Cells were incubated at room temperature for 3 hours before HBSS was collected and glutamate concentration determined by colorimetric assay (Sigma, Cat. #MAK004). Relative change in glutamate uptake was calculated compared to negative control wells.

Mouse astrocyte cells = assay: CXCL1 and IL-6 ELISA of astrocyte culture media after RAC treatment; assay type: cell-based; conditions: RAC+APL [50 nM]
Description: To stimulate astrocytes into a reactive state found in aging and neurodegenerative diseases per previous publications (Liddelow et al., 2017; Barbar et al., 2020), a combination of the cytokines TNF-α and IL-1α, and complement factor C1q, were added at 30 ng/mL, 3 ng/mL, and 400 ng/mL, respectively, into astrocyte culture media to make 'reactive astrocyte cocktail' (RAC) media. […] Bachem, Cat. #4029110), BAY-11-7082 (50 μM; Abcam, Cat. #ab141228) or equal volume of vehicle (0.01% DMSO in PBS) (hereafter referred to as 'RAC treatment'). Cells in Groups 3-6 were treated with RAC for 24 hours, with or without the test compounds (n=4 per group). • Group 1: Control [CON] • Group 2: CON+BGE-105 (50 nM) [CON+105] • Group 3: Reactive control treated with RAC only [RAC] • Group 4: RAC+BGE-105 (50 nM) [RAC+105] • Group 5: RAC+Pyrm-Apelin-13 (50 nM) • Group 6: RAC+BAY-11-7082 (NF-κB inhibitor; 50 μM) [RAC+BAY] Media from each tested cell group was collected for cytokine release analysis. Cells were lysed for RNA collection and RT-PCR was performed to synthesis cDNA under standard conditions. Next, transcriptome analysis was performed to determine the expression level of astrocyte genes or astrocyte responsive genes. Changes of expression was normalized to β-actin (FIGS. 8 and 9). Exemplary biomarkers include CCL2, CXCL10, CXCL11, CXCL1, CXCL2, CXCL3, CXCL8, EDN1, […]3, CIS, CTRL, C3, CFB, VEGF, and IL-6. For analysis of cytokines secreted by astrocytes, culture media was collected after RAC treatment, centrifuged at 10,000 RPM for 5 minutes to pellet any debris, and supernatant was transferred to a new tube and assayed immediately or frozen at -80° C. For individual analysis of CXCL1 or IL-6 concentrations, cell culture supernatant was diluted 1:50 or 1:10, respectively, and assessed using mouse-specific ELISA kits per manufacturer's protocols (R&D Systems, Cat. #DY453 and #DY406).

(Pyr^1)-Apelin-13 [reference compound]
percentage of glutamate uptake in RAC astrocytes (Mouse primary astrocytes): significantly and statistically increased | CXCL1 concentration/release compared with BGE-105 [50 nM] group (Mouse astrocyte cells): no significant difference | IL-6 concentration/release compared with BGE-105 [50 nM] group (Mouse astrocyte cells): no significant difference
